# Measured values as given in PMC3993903 (Molecular pharmaceutics, 2014).
# Key:
# Type in all cases: cell-based, human
# [1] = test system: drug-resistant cervical cancer cells KB-V1; assay: Cellular uptake by KB-V1 cells; conditions: 5 µM, absence or presence of equal molar C8-Tat (5 µM), flow cytometry
# KB-3-1 cells = assay: Cytotoxicity; conditions: 2 h treatment with 5 or 15 µM, further 46 h in drug-free medium, SRB, mean ± s.d. n = 3
# KB-V1 cells = assay: Cytotoxicity; conditions: 2 h treatment with 5 or 15 µM, further 46 h in drug-free medium, SRB, mean ± s.d. n = 3
compound,measurement,setting,value
"COc1cccc2c1C(=O)c1c(O)c3c(c(O)c1C2=O)C[C@@](O)(C(=O)CO)C[C@@H]3O[C@H]1C[C@H](N)[C@H](O)[C@H](C)O1 [Dox, doxorubicin]",intracellular accumulation with or without C8-Tat treatment,[1],almost identical
same,short-term cytotoxicity (cell viability),KB-3-1 cells,toxicity toward drug-sensitive cells
same,short-term cytotoxicity (cell viability),KB-V1 cells,not on drug-resistant cells
